Test results published in US20020028938A1, “Prostaglandin endoperoxide H synthase biosynthesis inhibitors” (priority 1997, published 2002).

Tests used:
[1] = molecular target: T1, recombinant human Cox-1 (r-hu Cox1) (Homo sapiens, UniProt P23219); assay: Recombinant human PGHS-1 enzyme assay (RHUCX1); type: biochemical; conditions: for inhibition at 100 µM / inhibition at 10 µM / inhibition at 1 µM: read-out: RHUCX1 % Inh. at Dose
T1 construct: made in house; host or cells: baculovirus/Sf9 insect cells (microsomes)
T1 sequence (P23219 24-599): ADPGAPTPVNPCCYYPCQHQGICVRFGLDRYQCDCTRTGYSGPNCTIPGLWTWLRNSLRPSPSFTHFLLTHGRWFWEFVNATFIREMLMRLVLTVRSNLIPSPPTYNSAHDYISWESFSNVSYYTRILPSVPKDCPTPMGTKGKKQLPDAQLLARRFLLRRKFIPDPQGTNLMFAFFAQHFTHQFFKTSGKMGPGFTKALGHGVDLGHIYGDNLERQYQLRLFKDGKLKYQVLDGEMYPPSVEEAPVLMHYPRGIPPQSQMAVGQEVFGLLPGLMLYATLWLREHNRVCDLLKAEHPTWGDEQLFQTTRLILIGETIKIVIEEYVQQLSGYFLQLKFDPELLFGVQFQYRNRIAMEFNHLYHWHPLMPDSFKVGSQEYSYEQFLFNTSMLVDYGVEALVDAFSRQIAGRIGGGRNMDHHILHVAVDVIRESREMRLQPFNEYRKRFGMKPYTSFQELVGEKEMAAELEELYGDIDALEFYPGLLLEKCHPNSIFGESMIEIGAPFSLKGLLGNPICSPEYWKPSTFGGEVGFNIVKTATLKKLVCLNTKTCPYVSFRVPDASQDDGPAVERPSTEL
Method: (§1) To compare the mean responses of the treatment groups, analysis of variance was applied. Percent inhibition values were determined by comparing the individual treatment mean values to the mean of the control group. Linear regression was used to estimate IC50's/ED50's in appropriate assays.
(§2) EIA reagents for prostaglandin determination were purchased from Perseptive Diagnostics, (Cambridge, Mass.). Prostaglandin E2 (PGE2) levels in lavage fluids were determined after the samples were dried under nitrogen and reconstituted with assay buffer. PGE2 levels in enzyme assays or cell culture media were measured against standards prepared in the same milieu. The immunoassays were conducted as recommended by the manufacturer. The EIA was conducted in 96 well microtiter plates (Nunc Roskilde, Denmark) and optical density was measured using a microplate reader (Vmax, Molecular Devices Corp., Menlo Park, Calif.).
(§3) Inhibition of prostaglandin biosynthesis in vitro was evaluated using recombinant human Cox-1 (r-hu Cox1) and Cox-2 (r-hu Cox-2) enzyme assays. […] The reaction was allowed to run for 2.5 minutes at room temperature prior to quenching with HCl and neutralization with NaOH. PGE2 production in the presence and absence of the drug was determined by EIA analysis. The EIA was conducted in 96 well microtiter plates (Nunc Roskilde, Denmark) and optical density was measured using a microplate reader (Vmax, Molecular Devices Corp., Menlo Park, Calif.). EIA reagents for prostaglandin determination were purchased from Perseptive Diagnostics (Cambridge, Mass.). PGE2 levels were measured against standards prepared in the same milieu. The immunoassays were conducted as recommended by the manufacturer.

[2] = molecular target: T2, recombinant human Cox-2 (r-hu Cox-2) (Homo sapiens, UniProt P35354); assay: Recombinant human PGHS-2 enzyme assay (RHUCX2); type: biochemical; conditions: for IC50: read-out: RHUCX2 IC50 (parenthetical value)
T2 construct: made in house; host or cells: baculovirus/Sf9 insect cells (microsomes)
T2 sequence (P35354 18-604): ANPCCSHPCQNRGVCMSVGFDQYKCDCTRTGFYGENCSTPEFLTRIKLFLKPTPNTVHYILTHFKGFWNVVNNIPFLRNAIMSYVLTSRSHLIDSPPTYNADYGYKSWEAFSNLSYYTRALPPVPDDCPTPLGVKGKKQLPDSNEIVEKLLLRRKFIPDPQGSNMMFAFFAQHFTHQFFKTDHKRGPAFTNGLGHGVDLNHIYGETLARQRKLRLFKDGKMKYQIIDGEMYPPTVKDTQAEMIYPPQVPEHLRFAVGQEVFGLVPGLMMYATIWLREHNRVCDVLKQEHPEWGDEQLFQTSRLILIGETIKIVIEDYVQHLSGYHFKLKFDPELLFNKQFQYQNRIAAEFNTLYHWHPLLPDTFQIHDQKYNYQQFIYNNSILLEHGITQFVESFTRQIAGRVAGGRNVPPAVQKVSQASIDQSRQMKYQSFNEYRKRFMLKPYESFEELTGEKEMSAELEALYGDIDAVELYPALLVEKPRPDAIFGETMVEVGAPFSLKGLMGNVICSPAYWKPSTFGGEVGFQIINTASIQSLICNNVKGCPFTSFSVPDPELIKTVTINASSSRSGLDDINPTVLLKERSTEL
Method: as §1, §2, §3

[3] = 0.01 μM, read-out: RHUCX2 % Inh. at Dose
[4] = 0.1 μM, read-out: RHUCX2 % Inh. at Dose
[5] = 1 μM, read-out: RHUCX2 % Inh. at Dose

SMILES | inhibition at 100 µM ([1]; 100 μM) [%] | melting point [°C] | inhibition at 0.1 µM [2, 4] [%] | inhibition at 1 µM [2, 5] [%] | inhibition at 10 µM [1] [%] | IC50 [2] [nM] | other results
CS(=O)(=O)c1ccc(-c2cnn(CC=Cc3ccccc3)c(=O)c2-c2ccc(F)cc2)cc1 [Example 36, 2-(3-Phenyl-2-propenyl)-4-(4-fluorophenyl)-5-[4-(methylsulfonyl)phenyl]-3(2H)-pyridazinone] | – | 165 to 167 | – | – | 21 | 570 | –
CS(=O)(=O)c1ccc(-c2cnn(C=C(F)C(F)(F)C(F)(F)F)c(=O)c2-c2ccc(F)cc2)cc1 [Example 40, 2-(2,3,3,4,4,4-Hexafluorobuten-1-yl)-4-(4-fluorophenyl)-5-[4-(methylsulfonyl)phenyl]-3(2H)-pyridazinone] | – | 167 to 169 | 89 | 97 | 76 | – | inhibition at 1 µM [1]: 69%
CC(c1ccc(F)cc1)n1ncc(-c2ccc(S(C)(=O)=O)cc2)c(-c2ccc(F)cc2)c1=O (stereo not drawn) [Example 50, 2-(α-Methyl-4-fluorobenzyl)-4-(4-fluorophenyl)-5-[4-(methylsulfonyl)phenyl]-3(2H)-pyridazinone] | 23 | 162 to 164 | 59 | 99 | – | – | –
CS(=O)(=O)c1ccc(-c2cnn(CC(F)(F)F)c(=O)c2-c2ccc(Cl)c(Cl)c2)cc1 [Example 81, 2-(2,2,2-Trifluoroethyl)-4-(3,4-dichlorophenyl)-5-[4-(methylsulfonyl)phenyl]-3(2H)-pyridazinone] | 6 | 197 to 198 | 44 | 97 | – | – | –
CSc1cccc(-n2ncc(-c3ccc(S(C)(=O)=O)cc3)c(-c3ccc(F)cc3)c2=O)c1 [Example 97, 2-[3-(Methylthio)phenyl]-4-(4-fluorophenyl)-5-[4-(methylsulfonyl)phenyl]-3(2H)-pyridazinone] | 35 | 196 | – | – | – | 332 | –
CS(=O)(=O)c1ccc(-c2cnn(-c3cc(F)cc(F)c3)c(=O)c2Oc2ccc(F)cc2)cc1 [Example 111, 2-(3,5-Difluorophenyl)-4-(4-fluorophenoxy)-5-[4-(methylsulfonyl)phenyl]-3(2H)-pyridazinone] | 13 | 209 to 211 | – | – | – | 52 | –
NS(=O)(=O)c1ccc(-c2cnn(Cc3ccc(F)cc3F)c(=O)c2-c2ccc(F)cc2)cc1 [Example 124, 2-(2,4-Difluorobenzl)-4-(4-fluorolphenyl)-5-[4-(aminosulfonyl)phenyl]-3(2H)-pyridazinone] | 26 | 236 to 238 | – | – | – | 44 | –
NS(=O)(=O)c1ccc(-c2cnn(Cc3ccc(F)c(F)c3)c(=O)c2-c2ccc(F)cc2)cc1 [Example 127, 2-(3,4-Difluorobenzyl)-4-(4-fluorophenyl)-5-[4-(aminosulfonyl)phenyl]-3(2H)-pyridazinone] | – | 253 to 255 | 51 | 74 | 50 | – | inhibition at 1 µM [1]: 30%
CS(=O)(=O)c1ccc(-c2cnn(C3Cc4ccccc4C3)c(=O)c2-c2ccc(F)cc2)cc1 [Example 128, 2-(2,3-Dihydro-1H-inden-2-yl)-4-(4-fluorophenl)-5-[4-(methylsulfonyl)phenyl]-3(2H)-pyridazinone] | 14 | 97 to 100 | – | – | – | 477 | –
CC1(n2ncc(-c3ccc(S(C)(=O)=O)cc3)c(-c3ccc(F)cc3)c2=O)CCCC1 [Example 134] | 54 | 107 to 110 | – | – | 35 | 53 | –
CC(c1cccc(F)c1)n1ncc(-c2ccc(S(N)(=O)=O)cc2)c(-c2ccc(F)cc2)c1=O (stereo not drawn) [Example 144, 2-(α-Methyl-3-fluorobenzyl)-4-(4-fluorophenyl)-5-[4-(aminosulfonyl)phenyl]-3(2H)-pyridazinone] | – | 192 to 194 | 78 | 88 | – | – | IC50 ([1]; read-out: RHUCX1 IC50 (parenthetical value)): 58 nM; inhibition at 0.01 µM [2, 3]: 65%
CC(C)=CCCOc1c(-c2ccc(S(C)(=O)=O)cc2)cnn(-c2ccc(F)cc2)c1=O [Example 424] | – | – | – | – | – | – | RHUCX1 % Inh. at Dose (μM) ([1]; 100 μM): 7 @ 100%; RHUCX2 % Inh. at Dose (μM) ([2]; 0.01 μM): 33 @ 0.01%; RHUCX2 % Inh. at Dose (μM) ([2]; 0.1 μM): 58 @ 0.1%; RHUCX2 % Inh. at Dose (μM) ([2]; 1 μM): 75 @ 1%

The next lines start with results.

inhibition at 100 µM ([1]; 100 μM) [%] | melting point [°C] | inhibition at 0.1 µM [2, 4] [%] | inhibition at 1 µM [2, 5] [%] | inhibition at 10 µM [1] [%] | IC50 [2] [nM] | SMILES | other results
25 | 179 to 182 | – | – | – | – | CS(=O)(=O)c1ccc(-c2cnn(Cc3ccc(F)cc3F)c(=O)c2-c2ccc(F)cc2)cc1 [Example 22, 2-(2,4-Difluorobenzyl)-4-(4-fluorophenyl)-5-[4-(methylsulfonyl)phenyl]-3(2H)-pyridazinone] | inhibition at 0.01 µM [2, 3]: 35%; inhibition at 0.03 µM ([2]; 0.03 μM, read-out: RHUCX2 % Inh. at Dose): 91%
1 | 87 to 90 | 66 | 93 | – | – | CS(=O)(=O)c1ccc(-c2cnn(Cc3ccccc3C(F)(F)F)c(=O)c2-c2ccc(F)cc2)cc1 [Example 25, 2-(2-Trifluoromethylbenzyl)-4-(4-fluorophenyl)-5-[4-(methylsulfonyl)phenyl]-3(2H)-pyridazinone] | –
10 | 118 to 121 | 44 | 91 | – | – | CS(=O)(=O)c1ccc(-c2cnn(CC3CC3)c(=O)c2-c2ccc(F)cc2)cc1 [Example 26, 2-(Cyclopropylmethyl)-4-(4-fluorophenyl)-5-[4-(methylsulfonyl)phenyl]-3(2H)-pyridazinone] | inhibition at 0.01 µM [2, 3]: 44%
– | 150 to 152 | – | – | 34 | 17 | CS(=O)(=O)c1ccc(-c2cnn(CC=C(Cl)Cl)c(=O)c2-c2ccc(F)cc2)cc1 [Example 35] | –
0 | 185 to 186 | – | – | – | 440 | CS(=O)(=O)c1ccc(-c2cnn(Cc3ncc(Cl)s3)c(=O)c2-c2ccc(F)cc2)cc1 [Example 39, 2-(5-Chlorothiazol-2-ylmethyl)-4-(4-fluorophenyl)-5-[4-(methylsulfonyl)phenyl]-3(2H)-pyridazinone] | –
5 | 115 to 116 | 63 | 85 | – | – | CS(=O)(=O)c1ccc(-c2cnn(Cc3c(F)c(F)c(F)c(F)c3F)c(=O)c2-c2ccc(F)cc2)cc1 [Example 45, 2-(2,3,4,5,6-Pentafluorobenzyl)-4-(4-fluorophenyl)-5-[4-(methylsulfonyl)phenyl]-3(2H)-pyridazinone] | –
– | 134 to 136 | 83 | 99 | 32 | – | CS(=O)(=O)c1ccc(-c2cnn(Cc3ccccc3)c(=O)c2-c2ccc(F)c(Cl)c2)cc1 [Example 52, 2-Benzyl-4-(3-chloro-4-fluorophenyl)-5-[4-(methylsulfonyl)phenyl]-3(2H)-pyridazinone] | –
1 | 202 to 203 | – | – | – | 285 | CS(=O)(=O)c1ccc(-c2cnn(C3CCC3)c(=O)c2-c2ccc(F)cc2)cc1 [Example 122, 2-Cyclobutyl-4-(4-fluorophenyl)-5-[4-(methylsulfonyl)phenyl]-3(2H)-pyridazinone] | –
56 | 237 to 239 | 100 | – | 39 | – | NS(=O)(=O)c1ccc(-c2cnn(Cc3ccc(F)cc3)c(=O)c2-c2ccc(F)cc2)cc1 [Example 150, 2-(4-Fluorobenzyl)-4-(4-fluorophenyl)-5-[4-(aminosulfonyl)phenyl]-3(2H)-pyridazinone] | –
